Results published in US6713268B2, “Methods of identifying ocular hypotensive compounds having reduced hyperpigmentation” (Allergan, Inc., priority 2001, dated 2004).
Entries after “also recorded” stand apart in the source; their conditions may differ. Where two headings read alike, the source gives them in different places. One block for each compound: values may come before it.

Assays:
[1] = tested on: S91 melanoma cells co-cultured with human dermal fibroblasts; assay: DOPA oxidase (tyrosinase) activity in S91 melanoma cells in transwell co-culture with human dermal fibroblasts; format: cell-based; details: increasing concentrations 10^−9 to 10^−5 M, 4 days
Protocol: (§1) Human dermal fibroblasts and S91 melanoma cells are cultured in low-glucose Dulbecco's Modified Eagle Medium (DMEM) containing 10% fetal calf serum (FCS) supplemented with 2 mM L-glutamine, 100 mg/l sodium pyruvate, 100 U/ml penicillin G, 100 […] and 250 ng/ml amphotericin B at 37° C. with 5% CO2. For tyrosinase and melanogenesis assays, the FCS concentration is reduced to 1% during the incubation period.
(§2) S91 cells are plated at 10^5 cells/well in 6-well plates and allowed to attach overnight. For transwell studies, cells from a human dermal fibroblast cell line are plated on the transwell insert at 10^3 cells/well and allowed to attach overnight. Melanoma cells are plated in an initial excess over fibroblasts; preferably at a ratio between about 1:30 and about 1:1000, more preferably at a ratio between about 1:50 and about 1:300; most preferably at a ratio of about 1:100. For primary cells, cells are cultured at a ratio of fibroblasts to melanocytes of about 1:2 to about 1:50; preferably about 1:5 to about 1:20, even more preferably about 1:10. The added test agents generally stimulate fibroblast proliferation; thus the use of the transwell permits separate enumeration of the melanocytes.
(§3) Test agents are added every other day of the assay period, with no exchange of medium.
(§4) For DOPA oxidase (tyrosinase) activity, the cells were incubated for four days in this case and the S91 cells were collected in a lysis buffer. The cell suspension was subjected to one freeze/thaw cycle (−80° C.) and vortexed to extract the cytosolic cell contents. After centrifugation for 30 minutes at 16,000×g at 4° C., aliquots of the supernatant were used in a Bradford assay to determine protein concentration or incubated with d-DOPA or l-DOPA as substrates. The optical density was measured for up to 6 hours at 490 nm.
Cloudman S91 melanoma cells (ATCC CCL-53.1) were cultured either in the presence or absence of human dermal fibroblast cells (ATCC CRL-2097) as described above. The added drugs were: arachidonic acid, anandamide, Compound C, Compound A, Compound D, Compound […], and Compound E.

S91 melanoma cells [2] = assay: Cell proliferation assay of S91 melanoma cells; format: cell-based
Protocol: as §1, §2, §3
For the cell proliferation assay, melanoma cells were washed with Hanks BSS, trypsinized and counted with a hemacytometer.

FP receptor [3] = molecular target: T1, FP receptor (Homo sapiens, UniProt P43088); assay: FLIPR calcium signaling in HEK-293 cells stably transfected with the human FP receptor; format: cell-based; set-up: expressed in transfected cells; host or cells: HEK-293; details: HEK-293 human FP; for concentration at which FP receptor stimulation plateaus / concentration at which the FP receptor is stimulated (calcium signal): FLIPR, Fluo-4; for concentration at which the FP receptor is stimulated (calcium signal): onset of effect; for stimulation of the human FP receptor: calcium signal, about 10^−11 to 10^−8 M
Protocol: Human embryonic kidney cells of line HEK-293 are stably transfected with an expression vector encoding the human FP receptor. Cells were cultured in low Glucose Dulbecco's Modified Eagles Medium containing 10% fetal calf serum, 2 mM L-glutamine, 100 mg/l sodium pyruvate, 100 U/ml penicillin G, […] streptomycin, 250 μg/ml G418 200 μg/ml hygromycin and 250 ng/ml amphotericin B at 37° C. with 5% CO2. Cells were seeded on poly-D-lysine-coated 96-well plates at 5000/well, and cultured overnight before the experiment. The cells are cultured in the presence, respectively, of: latanoprost-free acid, fluprostenol, Compound A, Compound B, and assayed using a FLIPR (fluorescence imaging plate reader) using the calcium activated fluorescent dye Fluo-4 as an indicator of free intracellular calcium. As stimulation of the FP receptor is known to cause in increase in free intracellular calcium release, this experiment is designed to determine when the test compounds are capable of stimulating the human FP receptor.

iris [4] = details: monkey, in vivo
Protocol: (§5) The other eye is left untreated. A total of 8 animals is treated within each treatment group. At the end of the one year study period darkening of the treated eye is compared to a photograph of the same eye prior to treatment, and scored using the following scale:

[5] = tested on: S91 "Cloudman" melanoma cell line; details: cited from earlier work
S91 cells = details: native S91 cells; cited from earlier work
FP receptor [6] = molecular target: T1, FP receptor; set-up: host or cells: S91 'Cloudman' melanoma cells, stably transfected; details: cited from earlier work
S91 melanoma cells [7] = assay: DOPA oxidase (tyrosinase) activity in S91 melanoma cells cultured alone; format: cell-based
Protocol: as §1, §2, §3, §4
Cloudman S91 melanoma cells (ATCC CCL-53.1) were cultured either in the presence or absence of human dermal fibroblast cells (ATCC CRL-2097) as described above. […]

S91 melanoma cells [8] = assay: Melanin assay in S91 cells; format: cell-based; details: S91 cells not in transwell cultures
Protocol: as §1
as §2, with “The added test agents generally stimulate fibroblast proliferation; thus the use of the transwell permits separate enumeration of the melanocytes.” left out
For the melanin assay, cells were incubated for 5 days. […] After centrifugation for 30 min at 16,000×g at room temperature, the optical density of the supernatant was measured at 475 nm and compared to a standard curve obtained with synthetic melanin.

iris [9] = details: patients; cited from earlier work
iris [10] = assay: One year topical monkey study, darkening of the iris; details: once daily 35 microliter drop in one eye for one year; scale 0-3; untreated eyes baseline 1
Protocol: as §5

melanocytes = details: cited from earlier work

T1 sequence (P43088 whole entry): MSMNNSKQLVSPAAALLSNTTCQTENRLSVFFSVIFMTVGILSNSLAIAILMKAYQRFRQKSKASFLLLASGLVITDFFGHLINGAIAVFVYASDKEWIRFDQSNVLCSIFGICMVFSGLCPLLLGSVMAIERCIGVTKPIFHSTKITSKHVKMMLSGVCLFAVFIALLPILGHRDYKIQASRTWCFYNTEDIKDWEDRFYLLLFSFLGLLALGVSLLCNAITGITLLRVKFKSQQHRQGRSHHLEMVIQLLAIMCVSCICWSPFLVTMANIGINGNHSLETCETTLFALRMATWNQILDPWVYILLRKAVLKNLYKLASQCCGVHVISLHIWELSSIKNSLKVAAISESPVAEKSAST

- concentration at which FP receptor stimulation plateaus (FP receptor [3]): about 10^−8 M
- concentration at which the FP receptor is stimulated (calcium signal) (FP receptor [3]): about 10^−11 M
- stimulation of the human FP receptor (FP receptor [3]): stimulate
Compound: O=C(O)CCC/C=C\C[C@@H]1[C@@H](/C=C/[C@@H](O)COc2cccc(C(F)(F)F)c2)[C@H](O)C[C@@H]1O (racemic) [fluprostenol]
- tyrosinase (DOPA oxidase) activity [1]: stimulate increased production of tyrosinase; also recorded: dose-dependent effect
- S91 cell proliferation (S91 melanoma cells [2]; 10^−9 to 10^−5 M, with or without fibroblast co-cultures): No effect

- darkening of the treated eye (iris), score (iris [4]): about 1.1
Compound: CCNC(=O)CCC/C=C\C[C@@H]1[C@@H](/C=C/[C@@H](O)CCc2ccccc2)[C@H](O)C[C@@H]1O [Compound A]
- tyrosinase (DOPA oxidase) activity [1]: no significant changes

Compound: CCCCC[C@H](O)/C=C/[C@@H]1[C@@H](C/C=C\CCCC(=O)O)[C@@H](O)C[C@H]1O [PGF2α]
- melanogenesis / melanin production [5]: only at quite high concentrations
- calcium signal (S91 cells): failed to stimulate a calcium signal
- DOPA oxidase (tyrosinase) activity and melanin formation compared with native S91 cells (FP receptor [6]; FP receptor transfectants): indistinguishable
- calcium signal (FP receptor [6]; FP receptor transfected S91 cells): did not generate a calcium signal

Compound: CCCCC/C=C\C/C=C\C/C=C\C/C=C\CCCC(=O)NCCO [anandamide]
- tyrosinase (DOPA oxidase) activity [1]: no significant increase

Compound: CCCCC/C=C\C/C=C\C/C=C\C/C=C\CCCC(=O)O [arachidonic acid]
- tyrosinase (DOPA oxidase) activity [1]: significant increase
- tyrosinase (DOPA oxidase) activity (S91 melanoma cells [7]; S91 without fibroblasts, increasing concentrations 10^−9 to 10^−5 M, 4 days): smaller increase

- darkening of the treated eye (iris), score (iris [10]): 2
- concentration at which FP receptor stimulation plateaus (FP receptor [3]): about 10^−8 M
- concentration at which the FP receptor is stimulated (calcium signal) (FP receptor [3]): about 10^−11 M
- stimulation of the human FP receptor (FP receptor [3]): stimulate
Compound: CC(C)OC(=O)CCC/C=C\C[C@@H]1[C@@H](CC[C@@H](O)CCc2ccccc2)[C@H](O)C[C@@H]1O [latanoprost]
- tyrosinase (DOPA oxidase) activity [1]: stimulate increased production of tyrosinase; also recorded: dose-dependent effect
- tyrosinase activity (S91 melanoma cells [7]; S91 cells not in transwell cultures, 10^−5 M): enhancement
- DOPA oxidase activity (S91 melanoma cells [7]; S91 cells not in transwell cultures, up to 10^−6 M): no appreciable change
- S91 cell proliferation (S91 melanoma cells [2]; 10^−5 M, with or without fibroblasts): decrease
- S91 cell proliferation (S91 melanoma cells [2]; 10^−9 to 10^−6 M, with or without fibroblasts): little effect
- melanin formation (S91 melanoma cells [8]; 10^−5 M): enhancement
- melanin formation (S91 melanoma cells [8]; up to 10^−6 M): no appreciable change
- human eyes with increase in brown pigment in the iris (iris [9]): 5-15%

Compound: melanocyte-stimulating hormone [MSH]
- melanogenesis / melanin production [5]: able to simulate melanogenesis
- activity of tyrosinase (melanocytes): appears to stimulate
- expression or activity of TRP2 and TRP1 (melanocytes): does not increase
